Experimental data: BindingDB's records for doi:10.1021/jm00083a001 (Ici Pharmaceuticals Group, 1992)

Test: Inhibition of prolyl 4-hydroxylase

Row | SMILES | IC50 [nM]
1 | O=C(NS(=O)(=O)c1cc(Br)c(Br)s1)c1ccc(C(=O)O)nc1 | 8500
2 | O=C(NS(=O)(=O)c1ccc(Cl)s1)c1ccc(C(=O)O)nc1 | 2400
3 | O=C(NS(=O)(=O)c1cccc2cccnc12)c1ccc(C(=O)O)nc1 | 1800
4 | O=C(NS(=O)(=O)c1ccc(-c2cc(Cl)c3ccc(Cl)cc3n2)cc1)c1ccc(C(=O)O)nc1 | 6600

Next, values leading:

Row | IC50 [nM] | SMILES
5 | 3000 | O=C(NS(=O)(=O)Cc1ccccc1)c1ccc(C(=O)O)nc1
6 | 4400 | O=C(NS(=O)(=O)c1cccc2ccccc12)c1ccc(C(=O)O)nc1
7 | 1800 | CS(=O)(=O)NC(=O)c1ccc(C(=O)O)nc1
